Values joined by “and” are separate entries in the source; they are usually repeats but may differ in a detail not shown here. Equal entries are not always repeated. Inconclusive results and toxic doses are left out. The calls were made as follows: active = survival T/C of 150% or more; inactive = T/C below 125% in these data.
Tested on: P388 leukemia ip, CD2F1 mice, survival T/C
Test: NCI In Vivo Anticancer Drug Screen. Data for tumor model P388 Leukemia (intraperitoneal) in CD2F1 (CDF1) mice
Settings: endpoint: median survival time, higher = longer survival
Summary of the method: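 Mice carrying the transplanted tumor received test compound or vehicle. Survival was recorded in each group, and the value is the treated-group measurement divided by that of the vehicle-treated control group.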

[1] = dose: 50.0 mg/kg/injection, schedule: Q01DX005 (ip), vehicle: saline with Tween-80
[2] = dose: 100.0 mg/kg/injection, schedule: Q01DX005 (ip), vehicle: saline with Tween-80
[3] = dose: 200.0 mg/kg/injection, schedule: Q01DX005 (ip), vehicle: saline with Tween-80
[4] = dose: 50.0 mg/kg/injection, schedule: Q01DX009 (ip), vehicle: saline
[5] = dose: 100.0 mg/kg/injection, schedule: Q01DX009 (ip), vehicle: saline
[6] = dose: 100.0 mg/kg/injection, schedule: Q01DX009 (ip), vehicle: saline with Tween-80
[7] = dose: 200.0 mg/kg/injection, schedule: Q01DX009 (ip), vehicle: saline with Tween-80
[8] = dose: 60.0 mg/kg/injection, schedule: Q01DX005 (ip), vehicle: saline with Tween-80
[9] = dose: 120.0 mg/kg/injection, schedule: Q01DX005 (ip), vehicle: saline with Tween-80
[10] = dose: 240.0 mg/kg/injection, schedule: Q01DX005 (ip), vehicle: saline with Tween-80
[11] = dose: 1.56 mg/kg/injection, schedule: Q01DX009 (ip), vehicle: saline
[12] = dose: 6.25 mg/kg/injection, schedule: Q01DX009 (ip), vehicle: saline
[13] = dose: 50.0 mg/kg/injection, schedule: Q01DX005 (ip), vehicle: saline
[14] = dose: 100.0 mg/kg/injection, schedule: Q01DX005 (ip), vehicle: saline
[15] = dose: 50.0 mg/kg/injection, schedule: Q01DX009 (ip), vehicle: suspension in saline
[16] = dose: 50.0 mg/kg/injection, schedule: Q01DX009 (ip), vehicle: saline with Tween-80

Measured: T/C

Oc1c(Br)cc(Br)cc1/C=N/NC(=S)N/N=C/c1cc(Br)cc(Br)c1O
inactive: dose: 12.5 mg/kg/injection, schedule: Q01DX009 (ip), vehicle: distilled water + Tween-80 97 % of control | dose: 25.0 mg/kg/injection, schedule: Q01DX009 (ip), vehicle: distilled water + Tween-80 103 % of control and 108 % of control | dose: 50.0 mg/kg/injection, schedule: Q01DX009 (ip), vehicle: distilled water + Tween-80 118 % of control

CC1C(=O)C2(C(=O)O)CC1CCC2C12C=CC(=O)C(C)(C)C1C(=O)OC2 (stereo not given)
inactive: dose: 50.0 mg/kg/injection, schedule: Q04DX002 (ip), vehicle: saline with Tween-80 100 % of control | dose: 100.0 mg/kg/injection, schedule: Q04DX002 (ip), vehicle: saline with Tween-80 95 % of control | dose: 200.0 mg/kg/injection, schedule: Q04DX002 (ip), vehicle: saline with Tween-80 91 % of control

O=C(c1ccccc1)c1cnc2nc(-c3ccccc3)c(-c3ccccc3)nn12
inactive: dose: 12.5 mg/kg/injection, schedule: Q01DX005 (ip), vehicle: saline with Tween-80 89 % of control | dose: 25.0 mg/kg/injection, schedule: Q01DX005 (ip), vehicle: saline with Tween-80 90 % of control | [1] 93 % of control and 94 % of control | [2] 101 % of control | [3] 102 % of control

Cc1cc2nc(C(C)C(=O)c3ccc(Cl)cc3)c(=O)[nH]c2cc1C (stereo not given)
inactive: dose: 1.88 mg/kg/injection, schedule: Q01DX005 (ip), vehicle: saline with Tween-80 100 % of control | dose: 3.75 mg/kg/injection, schedule: Q01DX005 (ip), vehicle: saline with Tween-80 104 % of control | dose: 7.5 mg/kg/injection, schedule: Q01DX005 (ip), vehicle: saline with Tween-80 86 % of control

CC1C(c2ccc3c(c2)OCO3)CC(Cl)CC12C=C1OCOC1=CC2=O (stereo not given)
inactive: dose: 8.75 mg/kg/injection, schedule: Q01DX005 (ip), vehicle: Klucel (hydroxypropylcellulose) (HPC) 101 % of control | dose: 17.5 mg/kg/injection, schedule: Q01DX005 (ip), vehicle: Klucel (hydroxypropylcellulose) (HPC) 101 % of control | dose: 35.0 mg/kg/injection, schedule: Q01DX005 (ip), vehicle: Klucel (hydroxypropylcellulose) (HPC) 105 % of control

O=C(CC(=O)N1CCN(c2ccccn2)CC1)N1CCN(c2ccccn2)CC1
inactive: [4] 101 % of control | [5] 102 % of control

COC(C(N)=O)(c1ccccc1)C(F)(F)F (stereo not given)
inactive: [6] 90 % of control | [7] 100 % of control | dose: 400.0 mg/kg/injection, schedule: Q01DX009 (ip), vehicle: saline with Tween-80 90 % of control

O=C(O)C(=O)c1ccccc1
inactive: dose: 50.0 mg/kg/injection, schedule: Q04DX003 (ip), vehicle: saline 100 % of control | dose: 100.0 mg/kg/injection, schedule: Q04DX003 (ip), vehicle: saline 105 % of control | dose: 200.0 mg/kg/injection, schedule: Q04DX003 (ip), vehicle: saline 100 % of control

CCc1ccc([O-])c(C=NCCCN(C)CCCN=Cc2cc(C)ccc2[O-])c1.[Co+3].[N-]=[N+]=[N-]
inactive: [8] 88 % of control | [9] 91 % of control | [10] 101 % of control

[O-][N+]1(CC[N+]2([O-])CCCCC2)CCCCC1
inactive: dose: 60.0 mg/kg/injection, schedule: Q01DX005 (ip), vehicle: saline 97 % of control | dose: 120.0 mg/kg/injection, schedule: Q01DX005 (ip), vehicle: saline 100 % of control | dose: 240.0 mg/kg/injection, schedule: Q01DX005 (ip), vehicle: saline 97 % of control

N=C(N)n1ncc2c1CCCC2=O
inactive: [8] 100 % of control | [9] 105 % of control | [10] 96 % of control

CCN(CC)Cc1cc(C(=O)CC(c2ccccc2)S(=O)(=O)c2ccc(C)cc2)ccc1O (stereo not given)
inactive: [11] 100 % of control | dose: 3.12 mg/kg/injection, schedule: Q01DX009 (ip), vehicle: saline 94 % of control | [12] 97 % of control | [4] 90 % of control

CC(C)=NOCc1ccccc1
inactive: dose: 2.5 mg/kg/injection, schedule: Q01DX009 (ip), vehicle: Klucel (hydroxypropylcellulose) (HPC) 119 % of control | dose: 5.0 mg/kg/injection, schedule: Q01DX009 (ip), vehicle: Klucel (hydroxypropylcellulose) (HPC) 120 % of control | dose: 10.0 mg/kg/injection, schedule: Q01DX009 (ip), vehicle: Klucel (hydroxypropylcellulose) (HPC) 117 % of control | dose: 50.0 mg/kg/injection, schedule: Q01DX009 (ip), vehicle: Klucel (hydroxypropylcellulose) (HPC) 94 % of control | dose: 100.0 mg/kg/injection, schedule: Q01DX009 (ip), vehicle: Klucel (hydroxypropylcellulose) (HPC) 98 % of control

OCCN1CCC(C2CCN(CCO)CC2)CC1
inactive: [13] 96 % of control | [14] 97 % of control | dose: 200.0 mg/kg/injection, schedule: Q01DX005 (ip), vehicle: saline 98 % of control

O=C1c2ccccc2CCC1Cl (stereo not given)
inactive: dose: 1.56 mg/kg/injection, schedule: Q01DX009 (ip), vehicle: DMSO 100 % of control | dose: 3.12 mg/kg/injection, schedule: Q01DX009 (ip), vehicle: DMSO 103 % of control | dose: 6.25 mg/kg/injection, schedule: Q01DX009 (ip), vehicle: DMSO 94 % of control and 97 % of control | dose: 12.5 mg/kg/injection, schedule: Q01DX009 (ip), vehicle: DMSO 102 % of control | dose: 25.0 mg/kg/injection, schedule: Q01DX009 (ip), vehicle: DMSO 94 % of control

COc1ccc2cc1Oc1ccc(cc1)C[C@H]1c3cc(c(OC)cc3CCN1C)Oc1c(O)c(OC)cc3c1[C@H](C2)N(C)CC3
inactive: dose: 25.0 mg/kg/injection, schedule: Q01DX009 (ip), vehicle: saline 106 % of control | [4] 100 % of control | [15] 103 % of control | [5] 103 % of control | dose: 100.0 mg/kg/injection, schedule: Q01DX009 (ip), vehicle: suspension in saline 102 % of control

CCN(CC)CCOc1cccc2c1C(=O)c1ccccc1C2=O
inactive: [4] 105 % of control and 98 % of control | [5] 106 % of control

Cc1ccc(NC(=O)Nc2sc(=S)c3c(c2C#N)CCCC3)c(C)c1
inactive: [16] 87 % of control | [6] 94 % of control | [7] 89 % of control

CCCCN(CCCC)CC(C)(O)CNc1cc(OC)cc2cccnc12 (stereo not given)
inactive: dose: 25.0 mg/kg/injection, schedule: Q01DX005 (ip), vehicle: saline 101 % of control | [13] 107 % of control | [14] 98 % of control

O=C(O)c1cc([N+](=O)[O-])ccc1Nc1ccccc1
inactive: dose: 6.25 mg/kg/injection, schedule: Q01DX009 (ip), vehicle: suspension in saline 108 % of control and 90 % of control | dose: 12.5 mg/kg/injection, schedule: Q01DX009 (ip), vehicle: suspension in saline 104 % of control | dose: 25.0 mg/kg/injection, schedule: Q01DX009 (ip), vehicle: suspension in saline 100 % of control and 90 % of control | [15] 111 % of control and 91 % of control

CC1CC(=O)Nc2nc(N)ncc21 (stereo not given)
inactive: [8] 102 % of control | [9] 106 % of control | [10] 108 % of control

Cn1c(-c2ccc(/C=N/N=C(\N)N/N=C/c3ccc(-c4c[n+]5ccsc5n4C)cc3)cc2)c[n+]2ccsc12
inactive: dose: 0.13 mg/kg/injection, schedule: Q01DX005 (ip), vehicle: saline 108 % of control | dose: 0.25 mg/kg/injection, schedule: Q01DX005 (ip), vehicle: saline 121 % of control

Cn1c(Cc2ccccc2)c(C(=O)/C=C/c2ccccc2)c(=O)n(C)c1=O
inactive: [1] 103 % of control | [2] 100 % of control | [3] 99 % of control

c1ccc(CSC2=NCCN2)cc1
inactive: dose: 12.5 mg/kg/injection, schedule: Q01DX009 (ip), vehicle: saline 93 % of control | [4] 91 % of control

CCCCCC(=O)C(CCCC)(c1nc2n(c1O)C(=N)N=N2)c1nc2n(c1O)C(=N)N=N2 (stereo not given)
inactive: [1] 107 % of control | [2] 93 % of control

Cc1ccccc1N1CCOS(=O)OC(C)C1 (stereo not given)
inactive: [1] 100 % of control | [2] 104 % of control | [3] 100 % of control

O=C(CCCN1CCC(C(=O)c2ccc(F)cc2)CC1)c1ccc(F)cc1
inactive: [11] 92 % of control | dose: 3.13 mg/kg/injection, schedule: Q01DX009 (ip), vehicle: saline 93 % of control | dose: 6.25 mg/kg/injection, schedule: Q01DX009 (ip), vehicle: saline with Tween-80 100 % of control | [12] 104 % of control | dose: 12.5 mg/kg/injection, schedule: Q01DX009 (ip), vehicle: saline with Tween-80 100 % of control | dose: 25.0 mg/kg/injection, schedule: Q01DX009 (ip), vehicle: saline with Tween-80 110 % of control | [16] 118 % of control
